In article PMC7284870, “Antimicrobial Peptides from Rat-Tailed Maggots of the Drone Fly Eristalis tenax Show Potent Activity against Multidrug-Resistant Gram-Negative Bacteria” (Microorganisms, 2020):
Like-named read-outs stand apart in the source and are kept apart here. Blank lines part the entries; values can stand above or below the substance they belong to. No end group written: not given here.

Columns and labels:
[1] = system: S. aureus ATCC 33592; format: cell-based, Staphylococcus aureus
Method: (§1) The strains that were used in this study (Table 2 and Table S1) were cultivated at 37 °C in cation-adjusted Mueller–Hinton broth (CAMB) in Erlenmeyer flasks, or on the same medium with agar in Petri dishes. Exceptionally, Mycobacterium smegmatis was cultivated at 37 °C in brain heart infusion (BHI) medium that was supplemented with 1% Tween-80 in Erlenmeyer flasks, or on the same medium lacking detergent but with agar in Petri dishes. Strains listed with Robert Koch Institute (RKI) strain numbers are clinical isolates from the RKI strain collection originating from hospitalized patients in Germany. The remaining strains originated from the Sanofi strain collection and they were originally purchased from the American Type Culture Collection or the German Collection of Microorganisms and Cell Cultures. Meropenem/colistin-resistant strains were maintained, as described above, with the appropriate antibiotic added at levels below the minimal inhibitory concentration (MIC).
(§2) The MIC values were determined in 384-well microtiter plates with an assay volume of 20 µL. Immediately before each assay, the cultures of test organisms (bacteria grown for 18 h, Candida albicans and M. smegmatis grown for 48 h) were diluted with the appropriate medium to a density of 1 × 10^6 cells/mL (C. albicans), 1 × 10^5 cells/mL (M. smegmatis) or 5 × 10^5 cells per mL (other species). […] We transferred 2-µL aliquots from this dilution series to new 384-well microtiter plates while using a CyBio-Well 384-channel automated pipettor (Analytic Jena, Jena, Germany) and added 18 µL of the diluted suspension of each test species using a Viafill reagent dispenser (Integra), thus reducing the final peptide concentration 10-fold to the range 1024–0.03125 µg/mL. […] The growth of M. smegmatis was measured using the BacTiter-Glo luminescence test system (Promega, Madison, WI, USA). The growth of the other species was determined by visual inspection of the microtiter plate and turbidimetry based on the optical density at 600 nm (OD600). The MIC was defined as the peptide concentration at which no bacterial growth was observed. We supplemented the test medium with either 150 mM NaCl or 1.25 mM CaCl2 to represent monovalent and divalent cations to simulate physiological conditions.

[2] = system: E. coli RKI 6A-6; test: microbe, parasite or virus in culture; format: cell-based, Escherichia coli
Method: as §1, §2

[3] = system: E. coli RKI 131/08; test: microbe, parasite or virus in culture; format: cell-based, Escherichia coli
Method: as §1, §2

[4] = system: E. coli ATCC 25922
Method: as §1
The MIC values were determined in 384-well microtiter plates with an assay volume of 20 µL. Immediately before each assay, the cultures of test organisms (bacteria grown for 18 h, Candida albicans and M. smegmatis grown for 48 h) were diluted with the appropriate medium to a density of 1 × 10^6 cells/mL (C. albicans), 1 × 10^5 cells/mL (M. smegmatis) or 5 × 10^5 cells per mL (other species). The peptides were dissolved in sterile water at a concentration of 10.24 mg/mL and a 1:2 dilution series was prepared in a 384-well microtiter plate to achieve the concentration range 10,240–0.3125 µg/mL in a volume of 50 µL. We transferred 2-µL aliquots from this dilution series to new 384-well microtiter plates while using a CyBio-Well 384-channel automated pipettor (Analytic Jena, Jena, Germany) and added 18 µL of the diluted suspension of each test species using a Viafill reagent dispenser (Integra), thus reducing the final peptide concentration 10-fold to the range 1024–0.03125 µg/mL. The cells were incubated at 37 °C and 85% relative humidity, shaking at 180 rpm for 48 h (M. smegmatis), 24 h (C. albicans) or 18 h (other species). The growth of M. smegmatis was measured using the BacTiter-Glo luminescence test system (Promega, Madison, WI, USA). The growth of the other species was determined by visual inspection of the microtiter plate and turbidimetry based on the optical density at 600 nm (OD600). […] We supplemented the test medium with either 150 mM NaCl or 1.25 mM CaCl2 to represent monovalent and divalent cations to simulate physiological conditions.

[5] = system: K. pneumoniae RKI 68/16; format: cell-based, Klebsiella pneumoniae
Method: as §1, §2

[6] = system: K. pneumoniae RKI 268/15; format: cell-based, Klebsiella pneumoniae
Method: as §1, §2

[7] = system: Canida albicans FH2173; format: cell-based, Candida albicans; conditions: 24 h
Method: as §1, §2

[8] = system: Stenotrophomonas maltophilia RKI 136/09; format: cell-based; conditions: n=3
Method: as §1, §2

[9] = system: Klebsiella pneumoniae DSM 30104; format: cell-based
Method: as §1, §2

[10] = system: Staphylococcus epidermidis ATCC 35984; format: cell-based
Method: as §1, §2

[11] = system: Acinetobacter baumannii ATCC 19606; format: cell-based
Method: as §1, §2

[12] = system: Proteus mirabilis DSM 4479; format: cell-based
Method: as §1, §2

[13] = system: Klebsiella oxytoca RKI 52/07; format: cell-based
Method: as §1, §2

[14] = system: Mycobacterium smegmatis ATCC 607; format: cell-based
Method: as §1, §2

[15] = system: Escherichia coli D31; format: cell-based
Method: as §1, §2

[16] = system: Listeria monocytogenes DSM 20600; format: cell-based
Method: as §1, §2

[17] = system: Staphylococcus aureus ATCC 25923; format: cell-based
Method: as §1, §2

[18] = system: Pseudomonas aeruginosa ATCC 27853; format: cell-based
Method: as §1, §2

[19] = system: Enterococcus faecium DSM 17050; format: cell-based
Method: as §1, §2

[20] = system: A. baumannii RKI 19/09; test: microbe, parasite or virus in culture; format: cell-based, Acinetobacter baumannii
Method: as §1, §2

[21] = system: Enterobacter cloacae RKI 146/09; test: microbe, parasite or virus in culture; format: cell-based
Method: as §1, §2

[22] = system: K. pneumoniae RKI 93/10; test: microbe, parasite or virus in culture; format: cell-based, Klebsiella pneumoniae
Method: as §1, §2

[23] = CAMB + 0.075 µg/mL colistin (Col), n=3
[24] = CAMB adjusted to 1.25 mM CaCl2, n=3
[25] = CAMB adjusted to 150 mM NaCl, n=3

Substance: GWLRDFGKRIERTGQNIRDATIQTIGIAQEAANVAATLKG [EtCec2]
- MIC ([1]; CAMB, 18 h, 37 °C, n = 4): >1024 µg/mL
- MIC ([2]; Table 4, CAMB, n=3): 256 µg/mL
- MIC [3, 23]: 2 µg/mL
- MIC [3, 24]: 64 µg/mL
- MIC [3, 25]: 32 µg/mL
- MIC ([3]; Table 4, CAMB, n=3): 32 µg/mL
- MIC [4, 23]: 4 µg/mL
- MIC [4, 24]: 128 µg/mL
- MIC [4, 25]: 64 µg/mL
- MIC ([4]; CAMB, 18 h, 37 °C, n = 4): 64 µg/mL
- MIC ([4]; Table 4, CAMB, n=3): 64 µg/mL
- MIC ([5]; Table 4, CAMB, n=3): 256 µg/mL
- MIC ([6]; Table 4, CAMB, n=3): 256 µg/mL
- MIC ([7]; CAMB, 37 °C, n = 4): >1024 µg/mL
- MIC ([8]; CAMB adjusted to 150 mM NaCl): 256 µg/mL
- MIC ([8]; Table 4, CAMB): 512 µg/mL
- MIC [9, 23]: 2 µg/mL
- MIC [9, 24]: 32 µg/mL
- MIC [9, 25]: 16 µg/mL
- MIC ([9]; CAMB, 18 h, 37 °C, n = 4): 32 µg/mL
- MIC ([9]; Table 4, CAMB, n=3): 32 µg/mL
- MIC ([10]; CAMB, 18 h, 37 °C, n = 4): >1024 µg/mL
- MIC [11, 23]: 16 µg/mL
- MIC [11, 24]: 64 µg/mL
- MIC [11, 25]: 8 µg/mL
- MIC ([11]; CAMB, 18 h, 37 °C, n = 4): 32 µg/mL
- MIC ([11]; Table 4, CAMB, n=3): 32 µg/mL
- MIC ([12]; CAMB, 18 h, 37 °C, n = 4): >1024 µg/mL
- MIC [13, 23]: 2 µg/mL
- MIC ([13]; Table 5, CAMB, n=3): 32 µg/mL
- MIC ([14]; BHI, 48 h, 37 °C, BacTiter-Glo, n = 4): >1024 µg/mL
- MIC ([15]; CAMB, 18 h, 37 °C, n = 4): 16 µg/mL
- MIC ([16]; CAMB, 18 h, 37 °C, n = 4): >1024 µg/mL
- MIC ([17]; CAMB, 18 h, 37 °C, n = 4): >1024 µg/mL
- MIC ([18]; CAMB, 18 h, 37 °C, n = 4): >1024 µg/mL
- MIC ([19]; CAMB, 18 h, 37 °C, n = 4): >1024 µg/mL
- MIC [20, 23]: 4 µg/mL
- MIC [20, 25]: 16 µg/mL
- MIC ([20]; Table 4, CAMB, n=3): 16 µg/mL
- MIC [21, 23]: 64 µg/mL
- MIC [21, 24]: 128 µg/mL
- MIC [21, 25]: 128 µg/mL
- MIC ([21]; Table 4, CAMB, n=3): 64 µg/mL
- MIC [22, 23]: 16 µg/mL
- MIC [22, 24]: 256 µg/mL
- MIC [22, 25]: 256 µg/mL
- MIC ([22]; Table 4, CAMB, n=3): 128 µg/mL

Substance: GFLKKIGKKLEGAVQRTRDATIQTIAVAQAAANVAATAKQG [EtCec1]
- MIC ([1]; ATCC 33592, 18 h): >1024 µg/mL
- MIC ([2]; RKI 6A-6, 18 h): 32 µg/mL
- MIC ([4]; ATCC 25922, 18 h): 16 µg/mL
- MIC ([5]; RKI 68/16, 18 h): 64 µg/mL
- MIC ([6]; RKI 268/15, 18 h): 64 µg/mL
- MIC [7]: >1024 µg/mL
- MIC ([10]; ATCC 35984, 18 h): >1024 µg/mL
- MIC ([12]; DSM 4479, 18 h): >1024 µg/mL
- MIC ([13]; 18 h): 16 µg/mL
- MIC ([14]; ATCC 607, 48 h): >1024 µg/mL
- MIC ([15]; D31, 18 h): 16 µg/mL
- MIC ([16]; DSM 20600, 18 h): >1024 µg/mL
- MIC ([17]; ATCC 25923, 18 h): >1024 µg/mL
- MIC ([18]; ATCC 27853, 18 h): 256 µg/mL
- MIC ([19]; DSM 17050, 18 h): >1024 µg/mL
- MIC ([20]; RKI 19/09, 18 h): 16 µg/mL

- MIC ([1]; ATCC 33592, 18 h): >1024 µg/mL
- MIC ([3]; RKI 131/08, 18 h): >1024 µg/mL
- MIC ([4]; ATCC 25922, 18 h): >1024 µg/mL
- MIC [7]: >1024 µg/mL
- MIC ([9]; DSM 30104, 18 h): >1024 µg/mL
- MIC ([10]; ATCC 35984, 18 h): >1024 µg/mL
- MIC ([11]; ATCC 19606, 18 h): >1024 µg/mL
- MIC ([12]; DSM 4479, 18 h): >1024 µg/mL
- MIC ([13]; 18 h): >1024 µg/mL
- MIC ([14]; ATCC 607, 48 h): >1024 µg/mL
- MIC ([16]; DSM 20600, 18 h): >1024 µg/mL
- MIC ([17]; ATCC 25923, 18 h): >1024 µg/mL
- MIC ([18]; ATCC 27853, 18 h): >1024 µg/mL
- MIC ([19]; DSM 17050, 18 h): >1024 µg/mL
- MIC ([20]; RKI 19/09, 18 h): >1024 µg/mL
- MIC ([21]; RKI 146/09, 18 h): >1024 µg/mL
- MIC ([22]; RKI 93/10, 18 h): >1024 µg/mL
Substance: GFLKKVGKKLEGASDLTRDATIQTIAVAQAAANVAATAKQG [EtCec3]

- MIC ([3]; Table 5, CAMB, n=3): 0.5 µg/mL
- MIC ([4]; Table 5, CAMB, n=3): 0.5 µg/mL
- MIC ([9]; Table 5, CAMB, n=3): 0.5 µg/mL
- MIC ([11]; Table 5, CAMB, n=3): 1 µg/mL
- MIC ([13]; Table 5, CAMB, n=3): 2 µg/mL
- MIC ([20]; Table 5, CAMB, n=3): 0.5 µg/mL
- MIC ([21]; Table 5, CAMB, n=3): 2 µg/mL
- MIC ([22]; Table 5, CAMB, n=3): 1 µg/mL
Substance: colistin [reference compound]
